Assay results reported in patent publication US20110123617A1, “CLIOQUINOL FOR THE TREATMENT OF HEMATOLOGICAL MALIGNANCIES” (priority 2007, published 2011).
Entries after “also recorded” stand apart in the source; their conditions may differ.

Columns and labels:
[1] = system: chymotrypsin-like activity of the proteasome; test: Proteasome activity in cell lysates (Suc-LLVY-AMC cleavage); format: biochemical; conditions: cell lysates from leukemia and myeloma cell lines
Protocol: A) Proteasome activity of MDAY-D2 and JJN3 cellular extracts after two hours of treatment with clioquinol (CQ), CuCl2 (Cu), or an equimolar concentration of CQ and Cu. After treatment, the preferential chymotrypsin-like substrate Suc-LLVY-AMC was added and the rate of free AMC was measured over time with a florescent spectrophotometric plate reader (excitation=380 nm, emission=460 nm). B) Proteasome activity of intact MDAY-D2 and JJN3 cells after two hours of treatment with clioquinol (CQ), CuCl2 (Cu), or an equimolar concentration of CQ and Cu. After treatment, the preferential chymotrypsin-like substrate Suc-LLVY-AMC was added and the rate of free AMC was measured over time with a florescent spectrophotometric plate reader (excitation=380 nm, emission=460 nm). […] The chymotrypsin-like activity of the proteasome was measured by incubating equal amounts of protein with the preferential chymotrypsin-like substrate Suc-LLVY-AMC in assay buffer (50 mM Tris-HCl, pH 7.5, 150 mM NaCl) for two hours. After incubation, […] and the rate of free AMC was measured over time with a florescent spectrophotometric plate reader (excitation=380 nm, emission=460 nm). […] The chymotrypsin-like activity of the proteasome was measured by monitoring the rate of cleavage of the fluorescent substrate Suc-LLVY-AMC.

[2] = system: proteasome in normal hematopoietic cells; test: Proteasome activity in normal hematopoietic cells (PBSC); format: cell-based, human
Protocol: (§1) Proteasome activity of primary acute myeloid leukemia (AML) blasts or normal peripheral blood stem cells (PBSC) after twenty hours of treatment with clioquinol (CQ), or an equimolar concentration of […] and CuCl2 (Cu). After treatment, the preferential chymotrypsin-like substrate Suc-LLVY-AMC was added and the rate of free AMC was measured over time with a florescent spectrophotometric plate reader (excitation=380 nm, emission=460 nm). Cellular proteins were extracted from cells with lysis buffer (50 mM HEPES pH 7.5, 150 mM NaCl, 2 mM ATP, and 1% Triton X-100). The chymotrypsin-like activity of the proteasome was measured by incubating equal amounts of protein with the preferential chymotrypsin-like substrate Suc-LLVY-AMC in assay buffer (50 mM Tris-HCl, pH 7.5, 150 mM NaCl) for two hours. After incubation, […] and the rate of free AMC was measured over time with a florescent spectrophotometric plate reader (excitation=380 nm, emission=460 nm). The inventors examined the effect of clioquinol and copper on primary AML cells and normal hematopoietic cells. Primary AML were obtained from the peripheral blood of patients with AML. Normal hematopoietic stem cells (PBSC) were obtained from the peripheral blood of volunteers donating stem cells for allotransplant. […] After incubation, cell lysates were prepared and the enzymatic activity of the proteasome measured as above.

[3] = system: acute leukemia cell lines; test: Cell viability (MTS assay), acute leukemia cell lines; format: cell-based; conditions: 6/7 AML cell lines, forty-eight hours; read-out: IC50 (cell death)
Protocol: Cell viability of leukemia, myeloma, solid tumor and primary cells forty-eight hours after clioquinol treatment by MTS assay. Cell viability was assessed with the CellTiter96® Aqueous Non-Radioactive Assay kit according to manufactures' instructions (Promega). Apoptosis was measured by flow cytometry to detect cell surface Annexin V expression and propidium iodide (PI) uptake (Biovision, Mountain View, Calif., USA) as previously described (20) The inventors tested the effects of clioquinol on the viability of acute leukemia (n=7), myeloma (n=14), and solid tumor (n=5) cell lines as well as primary AML samples (n=6) and primary normal hematopoietic cells (n=3). Forty-eight hours after incubation, clioquinol induced cell death in 6/7 AML, 12/14 myeloma, 0/5 solid tumor, […] and 0/3 normal hematopoietic cells with an IC50 <20 μM (FIG. 5). Of note, after oral administration of clioquinol, trough serum concentrations of 20 μM can be achieved in patients (32).

[4] = system: chymotrypsin-like activity of the proteasome; test: Proteasome activity after treatment of intact cell lines; format: cell-based; conditions: intact leukemia and myeloma cell lines
Protocol: A) Proteasome activity of MDAY-D2 and JJN3 cellular extracts after two hours of treatment with clioquinol (CQ), CuCl2 (Cu), or an equimolar concentration of CQ and Cu. After treatment, the preferential chymotrypsin-like substrate Suc-LLVY-AMC was added and the rate of free AMC was measured over time with a florescent spectrophotometric plate reader (excitation=380 nm, emission=460 nm). B) Proteasome activity of intact MDAY-D2 and JJN3 cells after two hours of treatment with clioquinol (CQ), CuCl2 (Cu), or an equimolar concentration of CQ and Cu. After treatment, the preferential chymotrypsin-like substrate Suc-LLVY-AMC was added and the rate of free AMC was measured over time with a florescent spectrophotometric plate reader (excitation=380 nm, emission=460 nm). Cellular proteins were extracted from cells with lysis buffer (50 mM HEPES pH 7.5, 150 mM NaCl, 2 mM ATP, and 1% Triton X-100). The chymotrypsin-like activity of the proteasome was measured by incubating equal amounts of protein with the preferential chymotrypsin-like substrate Suc-LLVY-AMC in assay buffer (50 mM Tris-HCl, pH 7.5, 150 mM NaCl) for two hours. After incubation, […] and the rate of free AMC was measured over time with a florescent spectrophotometric plate reader (excitation=380 nm, emission=460 nm). […]

[5] = system: proteasome in primary AML cells; test: Proteasome activity in primary AML cells; format: cell-based, human
Protocol: as §1

[6] = patients, after oral administration; cited from earlier work

Oc1c(I)cc(Cl)c2cccnc12 [clioquinol, 5-chloro-7-iodo-8-hydroxyquinoline]
rate of Suc-LLVY-AMC cleavage [1]: inhibited the rate of Suc-LLVY-AMC cleavage | enzymatic activity of the proteasome [2]: no effect; also recorded: no proteasomal inhibition was detected | IC50 [3]: < 20 µM | chymotrypsin-like activity of the proteasome [4]: inhibited chymotrypsin-like activity at low micromolar concentrations | enzymatic activity of the proteasome [5]: inhibited the proteasome | trough serum concentrations [6]: 20 µM
